Data as given in ChEMBL document CHEMBL5523691, “SAR study of N'-(Salicylidene)heteroarenecarbohydrazides as promising antifungal agents” (Bioorg Med Chem, 2024).
≈ marks a conversion by molar mass, not a printed value. Calls of active or inactive are those of the source. The calls are words filed in the database; no cut-off is given here.

How the values were obtained:
Cryptococcus neoformans [1] = experiment: Antifungal activity against wild type Cryptococcus neoformans H99 assessed as inhibition of fungal growth incubated for 24 to 72 hrs by optical density based analysis; type: functional; conditions: time 24-72 hrs
[2] = Selectivity index, ratio of LD50 for human A549 cells to MIC80 for Cryptococcus neoformans H99; type: toxicity; conditions: read-out: Selectivity Index
Cryptococcus neoformans [3] = experiment: Fungicidal activity against wild type Cryptococcus neoformans H99 assessed as minimum concentration required to kill fungus measured after 48 hrs by time-kill assay; type: functional
[4] = Cytotoxicity against human A549 cells assessed as cell killing measured after 24 to 48 hrs by MTT assay; type: toxicity, cell-based; conditions: time 24-48 hrs, read-out: LD50 (the source's name)
Cryptococcus neoformans [5] = experiment: Fungicidal activity against wild type Cryptococcus neoformans H99 assessed as minimum concentration required to kill fungus measured after 96 hrs by time-kill assay; type: functional
Aspergillus fumigatus = experiment: Antifungal activity against Aspergillus fumigatus assessed as inhibition of fungal growth incubated for 24 to 72 hrs by optical density based analysis; type: functional; conditions: time 24-72 hrs
Candida albicans = experiment: Antifungal activity against Candida albicans assessed as inhibition of fungal growth incubated for 24 to 72 hrs by optical density based analysis; type: functional; conditions: time 24-72 hrs
Cryptococcus neoformans [6] = experiment: Fungicidal activity against wild type Cryptococcus neoformans H99 assessed as minimum concentration required to kill fungus measured after 24 hrs by time-kill assay; type: functional
Cryptococcus neoformans [7] = experiment: Antifungal activity against wild type Cryptococcus neoformans H99 assessed as inhibition of fungal growth in presence of fluconazole; type: functional
Cryptococcus neoformans [8] = experiment: Antagonistic antifungal activity against wild type Cryptococcus neoformans H99 in presence of fluconazole; type: functional, organism-based
Cryptococcus neoformans [9] = experiment: Synergistic antifungal activity against wild type Cryptococcus neoformans H99 assessed as fractional inhibitory concentration index in presence of fluconazole; type: functional
Cryptococcus neoformans [10] = experiment: Antifungal activity against wild type Cryptococcus neoformans H99 assessed as inhibition of fungal growth in presence of caspofungin; type: functional
Cryptococcus neoformans [11] = experiment: Antagonistic antifungal activity against wild type Cryptococcus neoformans H99 in presence of caspofungin; type: functional, organism-based
Cryptococcus neoformans [12] = experiment: Synergistic antifungal activity against wild type Cryptococcus neoformans H99 assessed as fractional inhibitory concentration index in presence of amphotericin B; type: functional
Cryptococcus neoformans [13] = experiment: Antifungal activity against wild type Cryptococcus neoformans H99 assessed as inhibition of fungal growth in presence of amphotericin B; type: functional
Cryptococcus neoformans [14] = experiment: Antagonistic antifungal activity against wild type Cryptococcus neoformans H99 in presence of amphotericin B; type: functional, organism-based
Cryptococcus neoformans [15] = experiment: Synergistic antifungal activity against wild type Cryptococcus neoformans H99 assessed as fractional inhibitory concentration index in presence of caspofungin; type: functional
Cryptococcus neoformans [16] = experiment: Fungicidal activity against wild type Cryptococcus neoformans H99 assessed as minimum concentration required to kill fungus measured after 12 hrs by time-kill assay; type: functional
Cryptococcus neoformans [17] = experiment: Fungicidal activity against wild type Cryptococcus neoformans H99 assessed as minimum concentration required to kill fungus measured after 72 hrs by time-kill assay; type: functional
Cryptococcus neoformans [18] = experiment: Fungistatic activity against wild type Cryptococcus neoformans H99 assessed as inhibition of fungal growth incubated for 12 to 48 hrs by time-kill assay; type: functional, organism-based; conditions: time 12-48 hrs
Cryptococcus neoformans [19] = experiment: Antifungal activity against wild type Cryptococcus neoformans H99 assessed as fractional inhibitory concentration index in presence of amphotericin B; type: functional
Cryptococcus neoformans [20] = experiment: Antifungal activity against wild type Cryptococcus neoformans H99 assessed as fractional inhibitory concentration index in presence of fluconazole; type: functional

Compound	MIC80 (Cryptococcus neoformans [1]) [µg/mL]	selectivity ratio [2]	CC50 [4] [µg/mL]	other results
O=C(N/N=C/c1cc(Br)cc(Br)c1O)c1ccc(C(F)(F)F)s1	0.06 (≈ 0.127 µM)	16.6	1 (≈ 2.12 µM)	MFC100 (Cryptococcus neoformans [3]): 0.25 µg/mL (≈ 0.53 µM)
O=C(N/N=C/c1ccc(Br)cc1O)c1cc(Br)co1	0.5 (≈ 1.29 µM)	32	16 (≈ 41.2 µM)	MFC100 (Cryptococcus neoformans [5]): 2 µg/mL (≈ 5.15 µM)
C[C@@H]1[C@H](O)[C@@H](C)/C=C/C=C/C=C/C=C/C=C/C=C/C=C/[C@H](O[C@@H]2O[C@H](C)[C@@H](O)[C@H](N)[C@@H]2O)C[C@@H]2O[C@](O)(C[C@@H](O)C[C@@H](O)[C@H](O)CC[C@@H](O)C[C@@H](O)CC(=O)O[C@H]1C)C[C@H](O)[C@H]2C(=O)O [AMPHOTERICIN B]	0.5 (≈ 0.541 µM)	–	–	MIC80 (Aspergillus fumigatus): 1 µg/mL (≈ 1.08 µM)
CC[C@H](C)C[C@H](C)CCCCCCCCC(=O)N[C@H]1C[C@@H](O)[C@@H](NCCN)NC(=O)[C@@H]2[C@@H](O)CCN2C(=O)[C@H]([C@H](O)CCN)NC(=O)[C@H]([C@H](O)[C@@H](O)c2ccc(O)cc2)NC(=O)[C@@H]2C[C@@H](O)CN2C(=O)[C@H]([C@@H](C)O)NC1=O [CASPOFUNGIN]	> 32	–	–	MIC80 (Candida albicans): 0.5 µg/mL (≈ 0.457 µM)
O=C(N/N=C/c1ccc(Br)cc1O)c1csc(Br)c1	0.25 (≈ 0.619 µM)	> 128	> 32	MFC100 (Cryptococcus neoformans [6]): 0.5 µg/mL (≈ 1.24 µM)
O=C(N/N=C/c1ccc(Br)cc1O)c1cc(Br)c(Br)s1	0.002 (≈ 0.00414 µM)	> 533	> 32	MIC80 (Cryptococcus neoformans [7]): 0.001 µg/mL; Activity (Cryptococcus neoformans [8]): inactive; fractional inhibitory concentration index (FICI) (Cryptococcus neoformans [9]): 0.6; MIC80 (Cryptococcus neoformans [10]): 0.001 µg/mL; Activity (Cryptococcus neoformans [11]): inactive; MIC80 (Candida albicans): 0.125 µg/mL (≈ 0.259 µM); fractional inhibitory concentration index (FICI) (Cryptococcus neoformans [12]): 0.78; MIC80 (Aspergillus fumigatus): 0.06 µg/mL (≈ 0.124 µM); MIC80 (Cryptococcus neoformans [13]): 0.001 µg/mL; Activity (Cryptococcus neoformans [14]): inactive; MFC100 (Cryptococcus neoformans [6]): 0.5 µg/mL (≈ 1.04 µM); fractional inhibitory concentration index (FICI) (Cryptococcus neoformans [15]): 0.78
O=C(N/N=C/c1cc(Br)ccc1O)c1cc(Br)c(Br)o1	0.25 (≈ 0.535 µM)	–	32 (≈ 68.5 µM)	MFC100 (Cryptococcus neoformans [3]): 0.5 µg/mL (≈ 1.07 µM)
C[C@@H](c1ncncc1F)[C@](O)(Cn1cncn1)c1ccc(F)cc1F [VORICONAZOLE]	–	–	–	MIC80 (Aspergillus fumigatus): 0.125 µg/mL (≈ 0.358 µM)
O=C(N/N=C/c1c(O)ccc2ccccc12)c1ccc(C(F)(F)F)o1	0.5 (≈ 1.44 µM)	0.24	0.12 (≈ 0.345 µM)	MFC100 (Cryptococcus neoformans [3]): 2 µg/mL (≈ 5.74 µM)
O=C(N/N=C/c1cc(Br)cc(Br)c1O)c1csc(Br)c1	0.12 (≈ 0.248 µM)	133	16 (≈ 33.1 µM)	MFC100 (Cryptococcus neoformans [16]): 0.25 µg/mL (≈ 0.518 µM)
O=C(N/N=C/c1c(O)ccc2ccccc12)c1csc(Br)c1	0.25 (≈ 0.666 µM)	> 128	> 32	MFC100 (Cryptococcus neoformans [3]): 0.25 µg/mL (≈ 0.666 µM)
O=C(N/N=C/c1ccc(Br)cc1O)c1ccc(C(F)(F)F)o1	1 (≈ 2.65 µM)	4	4 (≈ 10.6 µM)	MFC100 (Cryptococcus neoformans [17]): 4 µg/mL (≈ 10.6 µM)
OC(Cn1cncn1)(Cn1cncn1)c1ccc(F)cc1F [FLUCONAZOLE]	2 (≈ 6.53 µM)	–	–	MIC80 (Candida albicans): 1 µg/mL (≈ 3.27 µM)
O=C(N/N=C/c1cc(Br)ccc1O)c1cncc(Br)c1	1 (≈ 2.51 µM)	4	4 (≈ 10 µM)	Activity (Cryptococcus neoformans [18]): Active
O=C(N/N=C/c1ccc(Br)cc1O)c1ccc(Br)o1	0.12 (≈ 0.309 µM)	> 533	> 32	MIC80 (Cryptococcus neoformans [7]): 0.015 µg/mL; Activity (Cryptococcus neoformans [8]): inactive; fractional inhibitory concentration index (FICI) (Cryptococcus neoformans [9]): 0.25; MIC80 (Cryptococcus neoformans [10]): 0.015 µg/mL; Activity (Cryptococcus neoformans [11]): inactive; MIC80 (Candida albicans): 0.5 µg/mL (≈ 1.29 µM); fractional inhibitory concentration index (FICI) (Cryptococcus neoformans [12]): 0.53; MIC80 (Aspergillus fumigatus): 0.5 µg/mL (≈ 1.29 µM); MIC80 (Cryptococcus neoformans [13]): 0.015 µg/mL; Activity (Cryptococcus neoformans [14]): inactive; MFC100 (Cryptococcus neoformans [6]): 0.5 µg/mL (≈ 1.29 µM); fractional inhibitory concentration index (FICI) (Cryptococcus neoformans [15]): 0.37
O=C(N/N=C/c1cc(Br)cc(Br)c1O)c1ccc(Br)o1	0.06 (≈ 0.129 µM)	267	16 (≈ 34.3 µM)	Activity (Cryptococcus neoformans [18]): Active
O=C(N/N=C/c1ccc(Br)cc1O)c1cc(Br)c(Br)o1	0.06 (≈ 0.129 µM)	267	16 (≈ 34.3 µM)	Activity (Cryptococcus neoformans [18]): Active
O=C(N/N=C/c1cc(Br)ccc1O)c1cc(Br)c(Br)s1	0.12 (≈ 0.248 µM)	267	32 (≈ 66.3 µM)	MFC100 (Cryptococcus neoformans [6]): 0.25 µg/mL (≈ 0.518 µM)
O=C(N/N=C/c1ccc(Br)cc1O)c1ccc(C(F)(F)F)s1	0.06 (≈ 0.153 µM)	8.3	0.5 (≈ 1.27 µM)	MFC100 (Cryptococcus neoformans [6]): 0.5 µg/mL (≈ 1.27 µM)
O=C(N/N=C/c1c(O)ccc2ccccc12)c1ccc(C(F)(F)F)s1	0.007 (≈ 0.0192 µM)	17.1	0.12 (≈ 0.329 µM)	MFC100 (Cryptococcus neoformans [6]): 0.25 µg/mL (≈ 0.686 µM)
O=C(N/N=C/c1cc(Br)cc(Br)c1O)c1cc(Br)c(Br)s1	1 (≈ 1.78 µM)	> 32	> 32	MFC100 (Cryptococcus neoformans [16]): 1 µg/mL (≈ 1.78 µM)
O=C(N/N=C/c1cc(Br)ccc1O)c1ccc(C(F)(F)F)s1	0.007 (≈ 0.0178 µM)	143	1 (≈ 2.54 µM)	MFC100 (Cryptococcus neoformans [6]): 0.25 µg/mL (≈ 0.636 µM)
O=C(N/N=C/c1ccc(Br)cc1O)c1cncc(Br)c1	1 (≈ 2.51 µM)	64	> 32	Activity (Cryptococcus neoformans [18]): Active
O=C(N/N=C/c1cc(Br)ccc1O)c1ccc(Br)o1	0.12 (≈ 0.309 µM)	> 533	> 32	MIC80 (Cryptococcus neoformans [7]): 0.06 µg/mL; Activity (Cryptococcus neoformans [8]): inactive; fractional inhibitory concentration index (FICI) (Cryptococcus neoformans [9]): 0.56; MIC80 (Cryptococcus neoformans [10]): 0.06 µg/mL; Activity (Cryptococcus neoformans [11]): inactive; MIC80 (Candida albicans): 1 µg/mL (≈ 2.58 µM); MIC80 (Aspergillus fumigatus): 0.25 µg/mL (≈ 0.644 µM); fractional inhibitory concentration index (FICI) (Cryptococcus neoformans [19]): 1.12; MIC80 (Cryptococcus neoformans [13]): 0.015 µg/mL; Activity (Cryptococcus neoformans [14]): inactive; MFC100 (Cryptococcus neoformans [6]): 0.25 µg/mL (≈ 0.644 µM); fractional inhibitory concentration index (FICI) (Cryptococcus neoformans [15]): 0.75
O=C(N/N=C/c1c(O)ccc2ccccc12)c1cncc(Br)c1	0.25 (≈ 0.675 µM)	8	2 (≈ 5.4 µM)	MFC100 (Cryptococcus neoformans [3]): 2 µg/mL (≈ 5.4 µM)
O=C(N/N=C/c1c(O)ccc2ccccc12)c1ccc(Br)o1	0.12 (≈ 0.334 µM)	267	32 (≈ 89.1 µM)	MFC100 (Cryptococcus neoformans [3]): 1 µg/mL (≈ 2.78 µM)
O=C(N/N=C/c1cc(Br)ccc1O)c1csc(Br)c1	0.014 (≈ 0.0346 µM)	> 1070	> 32	MIC80 (Cryptococcus neoformans [7]): 0.002 µg/mL; Activity (Cryptococcus neoformans [8]): inactive; MIC80 (Cryptococcus neoformans [10]): 0.015 µg/mL; Activity (Cryptococcus neoformans [11]): inactive; MIC80 (Candida albicans): 0.125 µg/mL (≈ 0.309 µM); fractional inhibitory concentration index (FICI) (Cryptococcus neoformans [12]): 0.53; MIC80 (Aspergillus fumigatus): 1 µg/mL (≈ 2.47 µM); MFC100 (Cryptococcus neoformans [3]): 0.06 µg/mL (≈ 0.148 µM); MIC80 (Cryptococcus neoformans [13]): 0.001 µg/mL; Activity (Cryptococcus neoformans [14]): inactive; fractional inhibitory concentration index (FICI) (Cryptococcus neoformans [15]): 0.14; fractional inhibitory concentration index (FICI) (Cryptococcus neoformans [20]): 1.1
O=C(N/N=C/c1cc(Br)cc(Br)c1O)c1cc(Br)c(Br)o1	0.12 (≈ 0.22 µM)	133	16 (≈ 29.3 µM)	MFC100 (Cryptococcus neoformans [16]): 0.12 µg/mL (≈ 0.22 µM)
